# According to article PMC4183655, “Discovery and Optimization of Small-Molecule Ligands for the CBP/p300 Bromodomains” (Journal of the American Chemical Society, 2014):
# How the values were obtained:
# [1] = molecular target: T1, CBP (Homo sapiens, UniProt Q92793); assay: DSF (ΔTm) thermal stability assay; type: binding; settings: compound concentration 10 μM; mean ± SEM (number of measurements)
# [2] = molecular target: T1, CBP; assay: Isothermal titration calorimetry (ITC); settings: for ITC 9T∆S, CBP: At T = 298.15 K
# [3] = molecular target: T2, BRD4(1) (Homo sapiens, UniProt O60885); assay: Isothermal titration calorimetry (ITC); settings: for ITC 9T∆S, BRD4(1): At T = 298.15 K; for Selectivity for CBP over BRD4(1): from ITC Kd values
# [4] = molecular target: T2, BRD4(1); assay: DSF (ΔTm) thermal stability assay; type: binding; settings: compound concentration 10 μM; mean ± SEM (number of measurements)
# [5] = molecular target: T1, CBP; assay: Peptide displacement AlphaScreen; type: binding; settings: mean ± SEM (number of measurements); read-out: CBP AlphaScreen pIC50 (converted)
# [6] = system: GFP-tagged 3 × CBP BRD construct; assay: Fluorescence recovery after photo-bleaching (FRAP) assay; settings: HeLa cells, DMSO + SAHA, no BRD inhibitor
# T1 sequence (Q92793 1085-1192 limits assumed): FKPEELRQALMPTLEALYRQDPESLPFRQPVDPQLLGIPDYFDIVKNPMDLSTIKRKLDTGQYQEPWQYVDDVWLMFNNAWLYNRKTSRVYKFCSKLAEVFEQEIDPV
ΔTm at 10 µM [1] [°C],"ITC N (molar binding ratio of the ligand-protein interaction), CBP [2]","ITC ∆G, CBP [2] [kcal/mol]","ITC ∆H, CBP [2] [kcal/mol]","ITC 9T∆S, CBP [2] [kcal/mol]","Kd ([2]; ITC Ka, CBP) [nM]","ITC N (molar binding ratio of the ligand-protein interaction), BRD4(1) [3]","ITC ∆G, BRD4(1) [3] [kcal/mol]","ITC ∆H, BRD4(1) [3] [kcal/mol]","ITC 9T∆S, BRD4(1) [3] [kcal/mol]","Kd ([3]; ITC Ka, BRD4(1)) [nM]","ITC Ka, BRD4(1) [3]",Selectivity for CBP over BRD4(1) [3],"Kd ([3]; ITC Kd BRD4(1), 15 °C) [nM]","Kd ([2]; ITC Kd CBP, 15 °C) [nM]",ΔTm at 10 µM [4] [°C],IC50 [5] [nM],Compound,"FRAP half-time of fluorescence recovery (t1/2), GFP-tagged 3× CBP BRD [6] [s]"
8.1,–,–,–,–,–,–,–,–,–,–,–,–,–,–,–,–,COc1ccc(CCc2nc3cc(-c4c(C)noc4C)ccc3n2CCN2CCOCC2)cc1 [Compound 26],–
7.1,–,–,–,–,–,–,–,–,–,–,–,–,–,–,–,–,Cc1noc(C)c1-c1ccc2c(c1)nc(CCc1cccc(F)c1)n2CCN1CCOCC1 [Compound 30],–
–,0.887 ± 0.00152,-9.98,-9.63 ± 0.0319,-0.346,27.7,0.674 ± 0.00495,-8.35,-8.02 ± 0.0815,-0.331,478,–,–,–,–,–,–,Cc1noc(C)c1-c1ccc2c(c1)nc(CCc1ccc(F)cc1)n2CCN1CCOCC1 [Compound 31],–
9,1.18 ± 0.00143,-10.1,-10.8 ± 0.0290,0.760,22.3,0.604 ± 0.00325,-8.32,-9.99 ± 0.0746,1.670,–,2.26 ± 0.121 106 M91,17-fold,–,–,–,–,COc1ccc(CCc2nc3cc(-c4c(C)noc4C)ccc3n2CCN2CCOCC2)cc1Cl [Compound 32],–
9.6,–,–,–,–,–,–,–,–,–,–,–,20-fold,440 ± 25,–,–,–,COc1ccc(CCc2nc3cc(-c4c(C)noc4C)ccc3n2CCN2CCOCC2)cc1F [Compound 33],–
–,0.703 ± 0.00135,-9.94,-9.30 ± 0.0342,-0.638,30.2,0.645 ± 0.00594,-8.10,-9.34 ± 0.118,1.240,662,–,–,–,–,–,–,Cc1noc(C)c1-c1ccc2c(c1)nc(CCc1nc3ccccc3s1)n2CCN1CCOCC1 [Compound 35],–
8.9,–,–,–,–,–,–,–,–,–,–,–,22-fold,660 ± 55,30 ± 2.1,–,–,Cc1noc(C)c1-c1ccc2c(c1)nc(CCn1ccc3ccccc31)n2CCN1CCOCC1 [Compound 36],–
2,–,–,–,–,–,–,–,–,–,–,–,–,–,–,< 1,–,COc1ccc(CCc2cc3cc(-c4c(C)noc4C)ccc3n2CCN2CCOCC2)cc1Cl [Compound 40],–
–,0.983 ± 0.00535,-8.50,-14.0 ± 0.0994,5.72,368,1.04 ± 0.0101,-7.78,-8.50 ± 0.108,0.725,1210,–,–,–,–,–,–,Cc1noc(C)c1-c1ccc(NC[C@H](C)N2CCOCC2)c([N+](=O)[O-])c1 [Compound 57],–
–,0.88 ± 0.00202,-10.0,-9.59 ± 0.0406,-0.420,26.2,0.84 ± 0.0113,-8.30,-7.46 ± 0.127,-0.844,532,–,–,–,–,–,–,Cc1noc(C)c1-c1ccc2c(c1)nc(CCn1ccc3ccccc31)n2C[C@@H](C)N1CCOCC1 [Compound 60],–
~10,1.01 ± 0.00517,-8.58,-12.5 ± 0.0855,3.94,239,0.862 ± 0.00663,-8.09,-9.21 ± 0.0912,1.12,685,–,20-fold,530 ± 74,26 ± 2.6,–,< 100,Cc1noc(C)c1-c1ccc2c(c1)nc(CCn1ccc3ccccc31)n2C[C@H](C)N1CCOCC1 [Compound 61],–
–,1.08 ± 0.0029,-9.71,-11.1 ± 0.0496,1.37,39.4,0.859 ± 0.00961,-8.17,-9.15 ± 0.128,0.978,606,–,–,–,–,–,–,COc1ccc(CCc2nc3cc(-c4c(C)noc4C)ccc3n2C[C@@H](C)N2CCOCC2)cc1F [Compound 62],–
~10,–,–,–,–,–,–,–,–,–,–,–,16-fold,610 ± 54,39 ± 2.9,–,< 100,COc1ccc(CCc2nc3cc(-c4c(C)noc4C)ccc3n2C[C@H](C)N2CCOCC2)cc1F [Compound 63],–
–,–,–,–,–,–,–,–,–,–,–,–,–,–,–,–,–,"O=C(CCCCCCC(=O)Nc1ccccc1)NO [SAHA, reference compound]",0.79
